From US20170050957A1, “4-AMINO-6-(HETEROCYCLIC)PICOLINATES AND 6-AMINO-2-(HETEROCYCLIC)PYRIMIDINE-4-CARBOXYLATES AND THEIR USE AS HERBICIDES” (Dow AgroSciences LLC, priority 2013, published 2017)
Read-outs that look alike come from different tables or passages of the source.

Assays:
[1] = test system: Key Broadleaf Weed and Crop Species; test: Post-emergent Test II herbicidal activity (Table 15); format: in vivo; conditions: post-emergence, 336 h, 14 d; for pest or weed control at 35 g/ha: 35 g ai/ha; for pest or weed control at 70 g/ha: 70 g ai/ha; for pest or weed control at 140 g/ha: 140 g ai/ha
How it was run: (§1)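 Visual injury rating (0 = none, 100 = complete kill) taken 14 d after treatment, relative to untreated plants. Compounds in acetone/DMSO with crop oil concentrate and Triton X-155 were track-sprayed at 187 L/ha onto seedlings at the first-second true leaf stage.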

[2] = test system: Key Grass and Sedge Weeds as well as Grass Crops; test: Post-emergent Test II herbicidal activity (Table 16); format: in vivo; conditions: post-emergence, 336 h, 14 days after application; for pest or weed control at 35 g/ha: 35 g ai/ha; for pest or weed control at 70 g/ha: 70 g ai/ha; for pest or weed control at 140 g/ha: 140 g ai/ha
How it was run: as §1

[3] = Abutilon theophrasti, velvetleaf (Abutilon theophrasti), read-out: Visual Growth Reduction (%) 14 Days After Application, ABUTH
[4] = Amaranthus retroflexus, redroot pigweed (Amaranthus retroflexus), read-out: Visual Growth Reduction (%) 14 Days After Application, AMARE
[5] = Brassica napus, oilseed rape, canola (Brassica napus), read-out: Visual Growth Reduction (%) 14 Days After Application, BRSNN
[6] = Chenopodium album, lambsquarters (Chenopodium album), read-out: Visual Growth Reduction (%) 14 Days After Application, CHEAL
[7] = Euphorbia heterophylla, wild poinsettia (Euphorbia heterophylla), read-out: Visual Growth Reduction (%) 14 Days After Application, EPHHL
[8] = Helianthus annuus, sunflower (Helianthus annuus), read-out: Visual Growth Reduction (%) 14 Days After Application, HELAN
[9] = Cyperus esculentus, yellow nutsedge (Cyperus esculentus), read-out: Visual Growth Reduction (%) 14 Days After Application CYPES
[10] = Echinochloa crus-galli, barnyardgrass (Echinochloa crus-galli), read-out: Visual Growth Reduction (%) 14 Days After Application ECHCG
[11] = Oryza sativa, rice (Oryza sativa), read-out: Visual Growth Reduction (%) 14 Days After Application ORYSA
[12] = Triticum aestivum, wheat, spring (Triticum aestivum), read-out: Visual Growth Reduction (%) 14 Days After Application TRZAS
[13] = Zea mays, maize, corn (Zea mays), read-out: Visual Growth Reduction (%) 14 Days After Application ZEAMX
[14] = Setaria faberi, giant foxtail (Setaria faberi), read-out: Visual Growth Reduction (%) 14 Days After Application SETFA

Structure (SMILES)	pest or weed control at 35 g/ha [1, 3] [%]	pest or weed control at 70 g/ha [1, 3] [%]	pest or weed control at 140 g/ha [1, 3] [%]	pest or weed control at 35 g/ha [1, 4] [%]	pest or weed control at 70 g/ha [1, 4] [%]	pest or weed control at 140 g/ha [1, 4] [%]	pest or weed control at 35 g/ha [1, 5] [%]	pest or weed control at 70 g/ha [1, 5] [%]	pest or weed control at 140 g/ha [1, 5] [%]	pest or weed control at 35 g/ha [1, 6] [%]	pest or weed control at 70 g/ha [1, 6] [%]	pest or weed control at 140 g/ha [1, 6] [%]	pest or weed control at 35 g/ha [1, 7] [%]	pest or weed control at 70 g/ha [1, 7] [%]	pest or weed control at 140 g/ha [1, 7] [%]	pest or weed control at 35 g/ha [1, 8] [%]	pest or weed control at 70 g/ha [1, 8] [%]	pest or weed control at 140 g/ha [1, 8] [%]	pest or weed control at 35 g/ha [2, 9] [%]	pest or weed control at 70 g/ha [2, 9] [%]	other results
COC(=O)c1nc(-c2ccc3ncn(C)c3c2)c(F)c(N)c1Cl [Compound 7.02]	0 to 29	0 to 29	0 to 29	0 to 29	0 to 29	0 to 29	0 to 29	0 to 29	0 to 29	0 to 29	75 to 84	95 to 100	0 to 29	0 to 29	0 to 29	0 to 29	0 to 29	0 to 29	0 to 29	0 to 29	pest or weed control at 140 g/ha [2, 9]: 0 to 29%; pest or weed control at 35 g/ha [2, 10]: 0 to 29%; pest or weed control at 70 g/ha [2, 10]: 0 to 29%; pest or weed control at 140 g/ha [2, 10]: 0 to 29%; pest or weed control at 35 g/ha [2, 11]: 0 to 29%; pest or weed control at 70 g/ha [2, 11]: 0 to 29%; pest or weed control at 140 g/ha [2, 11]: 0 to 29%; pest or weed control at 35 g/ha [2, 12]: 0 to 29%; pest or weed control at 70 g/ha [2, 12]: 0 to 29%; pest or weed control at 140 g/ha [2, 12]: 0 to 29%; pest or weed control at 35 g/ha [2, 13]: 0 to 29%; pest or weed control at 70 g/ha [2, 13]: 0 to 29%; pest or weed control at 140 g/ha [2, 13]: 0 to 29%; melting point: 218 to 220 °C
COC(=O)c1nc(-c2cc3sccc3cc2F)nc(N)c1OC [Compound 3.22]	0 to 29	0 to 29	0 to 29	60 to 74	95 to 100	95 to 100	0 to 29	30 to 44	60 to 74	60 to 74	75 to 84	85 to 94	95 to 100	95 to 100	95 to 100	75 to 84	85 to 94	85 to 94	0 to 29	0 to 29	pest or weed control at 140 g/ha [2, 9]: 0 to 29%; pest or weed control at 35 g/ha [2, 10]: 0 to 29%; pest or weed control at 70 g/ha [2, 10]: 0 to 29%; pest or weed control at 140 g/ha [2, 10]: 0 to 29%; pest or weed control at 35 g/ha [2, 11]: 0 to 29%; pest or weed control at 70 g/ha [2, 11]: 0 to 29%; pest or weed control at 140 g/ha [2, 11]: 0 to 29%; pest or weed control at 35 g/ha [2, 14]: 0 to 29%; pest or weed control at 70 g/ha [2, 14]: 0 to 29%; pest or weed control at 140 g/ha [2, 14]: 0 to 29%; pest or weed control at 35 g/ha [2, 12]: 0 to 29%; pest or weed control at 70 g/ha [2, 12]: 0 to 29%; pest or weed control at 140 g/ha [2, 12]: 0 to 29%; pest or weed control at 35 g/ha [2, 13]: 0 to 29%; pest or weed control at 70 g/ha [2, 13]: 0 to 29%; pest or weed control at 140 g/ha [2, 13]: 0 to 29%; melting point: 168 °C
